Assay results reported in patent US20210230159A1, “4H-PYRIDO[1,2-A]PYRIMIDIN-4-ONE COMPOUNDS” (Prana Biotechnology Limited, priority 2014, published 2021).

Test: Hydrogen peroxide (H2O2) inhibition assay (fluorescence, DCF/horseradish peroxidase)
Assay type: biochemical
Conditions: for IC50: HCl salt tested where HCl salt MW is given; for Fe-ASC % (cf. 0.4 uM Fe/Asc; cf. CQ, CQ = 100%) / Cu % ASC (cf. CQ = 100%) / Zn % ASC (cf. CQ = 100%): ascorbic acid as reducing substrate; for Fe-ASC % (cf. 0.4 uM Fe/Asc; cf. CQ, CQ = 100%) / Fe-DA % (cf. 0.4 uM Fe/DA; cf. CQ, CQ = 100%): test compound 0.4 μM, lower values = greater inhibition of H2O2; for Fe-DA % (cf. 0.4 uM Fe/DA; cf. CQ, CQ = 100%): dopamine as reducing substrate
Method: Assay 1. Hydrogen Peroxide Assay
H2O2 is a strong oxidizer and a highly reactive oxygen species that is known to be toxic to surrounding proteins and organelles, inhibiting their function. […] […] H2O2 generated by the system is assessed by measuring the specific fluorescence profile at the excitation and emission wavelengths of 485 and 530 nm respectively, in the presence of test compound. Test compounds were dissolved in DMSO and tested at concentrations of 0.4 μM. Test compounds are ranked according to their capacity to inhibit H2O2 generated by the system where lower values reflect greater ability to inhibit H2O2 production.

| IC50 | Fe-ASC % (cf. 0.4 uM Fe/Asc; cf. CQ, CQ = 100%) | Fe-DA % (cf. 0.4 uM Fe/DA; cf. CQ, CQ = 100%) | Cu % ASC (cf. CQ = 100%) | Zn % ASC (cf. CQ = 100%) | Compound |
| --- | --- | --- | --- | --- | --- |
| 230 nM | 133% ASC | 90% |  |  | O=c1cc(CNC2CCCC2)nc2c(O)cccn12 [Compound 1435] |
| 350 nM | >234% ASC | 38% |  |  | CCCNCc1cc(=O)n2c(C)ccc(O)c2n1 [Compound 1470] |
| 250 nM | 116% ASC | 52% |  |  | COc1ccc(CNCc2cc(=O)n3cccc(O)c3n2)cc1 [Compound 1443] |
| 380 nM | 126% ASC | 55% |  |  | O=C(NCc1ccncc1)c1cnc2c(O)cccn2c1=O [Compound 1450] |
| 340 nM | 79% ASC | 59% |  |  | O=C(NCc1ccc(C(F)(F)F)cc1)c1cnc2c(O)cccn2c1=O [Compound 1453] |
| 390 nM |  | 148% | Cu 54% ASC | Zn 57% ASC | O=C(NCc1ccc(Cl)cc1)c1cnc2c(O)cccn2c1=O [Compound 1429] |
| 420 nM | 55% ASC |  |  |  | CN(C)Cc1cc(=O)n2cccc(O)c2n1 [Compound 1401] |
| 460 nM | 72% ASC | 54% |  |  | CCCCCCCNC(=O)C1=CNC2C(O)=CC=CN2C1=O (centres unmarked) [Compound 1462] |
| 580 nM | 84% ASC | 49% |  |  | CN(Cc1cccc(Cl)c1)Cc1cc(=O)n2cccc(O)c2n1 [Compound 1518] |
| 580 nM | 136% ASC | 67% |  |  | O=c1cc(CNc2ccc(F)cc2)nc2c(O)cccn12 [Compound 1451] |
| 340 nM | >234% ASC | 47% |  |  | Cc1ccc(O)c2nc(CN(C)C)cc(=O)n12 [Compound 1466] |
| 470 nM | 135% ASC | 47% |  |  | O=c1cc(CNCc2ccc(OC(F)(F)F)cc2)nc2c(O)cccn12 [Compound 1464] |
| 210 nM | 169% ASC | 39% |  |  | Cc1ccc(O)c2nc(CNC3CCCCC3)cc(=O)n12 [Compound 1468] |
| 1140 nM |  |  |  |  | O=c1cc(CNCc2ccc(Cl)cc2)nc2c(O)cccn12 [Compound 1406] |
| 410 nM | 65% ASC | 66% |  |  | O=C(NCc1ccc2c(c1)OCO2)c1cnc2c(O)cccn2c1=O [Compound 1432] |
| 720 nM | 96% ASC |  |  |  | CCCCCCCCNC(=O)c1cnc2c(O)cccn2c1=O [Compound 1394] |
| 290 nM | 35% ASC |  |  |  | CCCCNCc1cc(=O)n2cccc(O)c2n1 [Compound 1405] |
| 430 nM |  |  |  |  | CC(C)CNCc1cc(=O)n2cccc(O)c2n1 [Compound 1408, 9-Hydroxy-2-((isobutylamino)methyl)-4H-pyrido[1,2-a]pyrimidin-4-one hydrogen chloride] |
| 1480 nM |  |  |  |  | Cc1cccc(NCc2cc(=O)n3c(C)ccc(O)c3n2)n1 [Compound 1531] |
| 580 nM | 137% ASC | 43% |  |  | O=c1cc(CNCC2CCCCC2)nc2c(O)cccn12 [Compound 1458] |
| 210 nM | 190% ASC | 101% |  |  | O=C(NC1CCCC1)c1cnc2c(O)cccn2c1=O [Compound 1436] |
| 440 nM | 74% ASC | 42% |  |  | Cc1ccc(O)c2nc(CNCc3ccc(F)cc3)cc(=O)n12 [Compound 1467] |
| 240 nM | 112% ASC | 52% |  |  | O=C(NCc1ccccn1)c1cnc2c(O)cccn2c1=O [Compound 1447] |
| 390 nM | 152% ASC | 73% |  |  | CCNC(=O)c1cnc2c(O)cccn2c1=O [Compound 1433] |
| 190 nM | 42% ASC |  |  |  | CCCCCNCc1cc(=O)n2cccc(O)c2n1 [Compound 1413] |
| 330 nM | 133% ASC | 64% |  |  | Cc1ccc(O)c2nc(CN(C)Cc3ccccc3F)cc(=O)n12 [Compound 1527] |

| IC50 | Fe-ASC % (cf. 0.4 uM Fe/Asc; cf. CQ, CQ = 100%) | Fe-DA % (cf. 0.4 uM Fe/DA; cf. CQ, CQ = 100%) | Cu % ASC (cf. CQ = 100%) | Zn % ASC (cf. CQ = 100%) | Compound |
| --- | --- | --- | --- | --- | --- |
| 1190 nM |  |  |  |  | O=C(c1cnc2c(O)cccn2c1=O)N1CCCCC1 [Compound 1533] |
|  |  |  | Cu 228% ASC | Zn 106% ASC | CC(C)c1cnc2c(O)c(CN(C)C)ccn2c1=O [Compound 1632] |
| 340 nM |  | 76% | Cu 212% ASC | Zn 69% ASC | CC(C)CNC(=O)c1cnc2c(O)cccn2c1=O [Compound 1425] |
|  |  |  | Cu 248% ASC | Zn 101% ASC | CCCc1cnc2c(O)c(CN(C)C)ccn2c1=O [Compound 1631] |
| 330 nM | 36% ASC |  |  |  | O=c1cc(CNCC2CC2)nc2c(O)cccn12 [Compound 1411] |
| 320 nM |  | 62% | Cu 212% ASC | Zn 121% ASC | O=C(NCCN1CCCC1)c1cnc2c(O)cccn2c1=O [Compound 1426] |
| 170 nM | 148% ASC | 32% |  |  | Cc1ccc(O)c2nc(CN3CCC(C)CC3)cc(=O)n12 [Compound 1508] |
| 320 nM | 105% ASC | 46% |  |  | Cc1ccc(O)c2nc(CN(C)Cc3cccc(F)c3)cc(=O)n12 [Compound 1525] |
| 230 nM | 204% ASC | 42% |  |  | Cc1ccc(O)c2nc(CNCC3CCCCC3)cc(=O)n12 [Compound 1503] |
|  |  |  | Cu 204% ASC | Zn 130% ASC | CCCc1cnc2c(O)c(-c3cccnc3)c(Cl)cn2c1=O [Compound 1629, 7-Chloro-9-hydroxy-3-propyl-8-(pyridin-3-yl)-4H-pyrido[1,2-a]pyrimidine-4-one] |
| 300 nM | 102% ASC | 52% |  |  | CN(Cc1cc(=O)n2cccc(O)c2n1)Cc1ccccc1F [Compound 1516] |
| 130 nM | 29% ASC |  |  |  | O=c1cc(CNCCCN2CCOCC2)nc2c(O)cccn12 [Compound 1412] |
| 290 nM | 86% ASC |  |  |  | CCCc1cnc2c(O)c(Cl)ccn2c1=O [Compound 1235] |
| < 100 nM | 29% ASC |  |  |  | O=c1cc(CNCc2ccccn2)nc2c(O)cccn12 [Compound 1414] |
| 350 nM | 100% ASC | 47% |  |  | Cc1ccc(O)c2nc(CN(C)Cc3cccc(Cl)c3)cc(=O)n12 [Compound 1519] |
| 800 nM | 48% ASC |  |  |  | CN(C)Cc1cnc2c(O)cccn2c1=O [Compound 1424, 3-((Dimethylamino)methyl)-9-hydroxy-4H-pyrido[1,2-a]pyrimidin-4-one hydrogen chloride] |
| 350 nM | 105% ASC | 53% |  |  | O=c1cc(CNc2ccc(F)cc2F)nc2c(O)cccn12 [Compound 1444] |
| 1000 nM | 65% ASC | 46% |  |  | O=C(NCc1ccc(F)c(F)c1)c1cnc2c(O)cccn2c1=O [Compound 1454] |
| 1290 nM | 39% ASC |  |  |  | COCc1cnc2c(O)cccn2c1=O [Compound 1398, 9-Hydroxy-3-(methoxymethyl)-4H-pyrido[1,2-a]pyrimidin-4-one] |
| 350 nM | 82% ASC | 47% |  |  | O=c1cc(CNCc2ccc(C(F)(F)F)cc2)nc2c(O)cccn12 [Compound 1455] |
| 690 nM | 66% ASC | 48% |  |  | CCCCCCNC(=O)c1cnc2c(O)cccn2c1=O [Compound 1440] |
| 3120 nM | 198% ASC | 75% |  |  | Cc1ccc(CNCc2cc(=O)n3cccc(O)c3n2)cc1 [Compound 1478] |
| 390 nM | 122% ASC | 58% |  |  | O=c1cc(CNC2CCCCC2)nc2c(O)cccn12 [Compound 1456] |
| < 100 nM | 34% ASC |  |  |  | O=c1cc(CNCCc2ccccn2)nc2c(O)cccn12 [Compound 1415] |
| 180 nM |  | 74% | Cu 212% ASC | Zn 61% ASC | O=C(NCCc1ccccn1)c1cnc2c(O)cccn2c1=O [Compound 1427] |
| 680 nM | 63% ASC |  |  |  | CCCCCNC(=O)c1cnc2c(O)cccn2c1=O [Compound 1422] |
